Source: the supplement of paper PMC10307832

Compound: C(C(=O)C(=O)O)Br [Bromopyruvate] + Nc1nc2[nH]cc(CCc3ccc(C(=O)N[C@@H](CCC(=O)O)C(=O)O)cc3)c2c(=O)[nH]1 [Pemetrexed] (partner 0.2 µM)
Test: relative viability (nuclei count vs DMSO), 5 days (fraction); higher = more cells survive
Details: first compound 1 µM
How it was run: (§1)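 Five library-drug doses in √10 steps were combined with a fixed anchor-drug dose, or a single drug was given alone, by pin tool to lung cancer cell lines in 1536-well plates the day after seeding. Nuclei were stained and counted after 5 days. Relative viability is the nuclei count in treated wells over that in vehicle wells, taken as the median of duplicate plates.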

In order of rising relative viability:
1. HCC-15  0.241
2. NCI-H1975  0.276
3. LC-2-ad  0.294
4. NCI-H1437  0.307
5. EPLC-272H  0.367
6. EKVX  0.396
7. NCI-H1755  0.44
8. RERF-LC-KJ  0.49
9. NCI-H1651  0.551
10. NCI-H322M  0.614
11. NCI-H23  0.71
12. NCI-H661  0.905
13. NCI-H2085  0.974
14. SK-LU-1  0.998
15. NCI-H1355  1.08
16. CAL-12T  1.26
17. PC-3 [JPC-3]  1.3

Same assay, conditions: first compound 3.162 µM

In order of rising relative viability:
1. NCI-H460  0.078
2. LCLC-97TM1  0.152
3. HCC-15  0.231
4. NCI-H2023  0.246
5. HCC-827  0.247
6. EPLC-272H  0.259
7. NCI-H441  0.282
8. LC-2-ad  0.287
9. NCI-H1975  0.3
10. NCI-H1437  0.315
11. 201T  0.345
12. NCI-H1734  0.398
13. NCI-H1915  0.41
14. EKVX  0.424
15. NCI-H1755  0.441
16. NCI-H2347  0.471
17. RERF-LC-KJ  0.507
18. NCI-H1651  0.583
19. NCI-H322M  0.663
20. NCI-H520  0.713
21. NCI-H23  0.76
22. SW 1573  0.792
23. HCC-78  0.92
24. LXF-289  0.92
25. NCI-H650  0.924
26. NCI-H661  0.944
27. NCI-H2085  0.954
28. SK-LU-1  0.961
29. A-427  0.975
30. CAL-12T  1.05
31. NCI-H2405  1.06
32. NCI-H1355  1.12

Same assay, conditions: first compound 10 µM

In order of falling relative viability:
1. CAL-12T  1.25
2. NCI-H2405  1.24
3. NCI-H1355  1.14
4. A-427  1.05
5. SK-LU-1  1.02
6. NCI-H2085  0.992
7. NCI-H661  0.985
8. HCC-78  0.95
9. SW 1573  0.899
10. LXF-289  0.899
11. NCI-H650  0.81
12. NCI-H23  0.808
13. PC-3 [JPC-3]  0.783
14. NCI-H520  0.691
15. NCI-H322M  0.592
16. NCI-H1651  0.582
17. NCI-H1915  0.497
18. NCI-H2347  0.486
19. RERF-LC-KJ  0.457
20. NCI-H1734  0.395
21. EKVX  0.376
22. NCI-H1755  0.371
23. NCI-H1437  0.339
24. EPLC-272H  0.334
25. 201T  0.323
26. NCI-H441  0.299
27. NCI-H1975  0.292
28. NCI-H2023  0.273
29. LC-2-ad  0.269
30. HCC-827  0.26
31. HCC-15  0.227
32. LCLC-97TM1  0.187
33. NCI-H460  0.0595

Same assay, conditions: first compound 31.62 µM

In order of falling relative viability:
1. CAL-12T  1.1
2. NCI-H1355  1.08
3. NCI-H650  0.989
4. LXF-289  0.958
5. NCI-H2085  0.937
6. HCC-78  0.895
7. NCI-H661  0.889
8. SK-LU-1  0.886
9. A-427  0.863
10. NCI-H23  0.619
11. NCI-H520  0.598
12. NCI-H322M  0.585
13. NCI-H1651  0.527
14. NCI-H1915  0.511
15. RERF-LC-KJ  0.49
16. NCI-H1755  0.475
17. NCI-H1734  0.466
18. NCI-H2347  0.44
19. SW 1573  0.436
20. EKVX  0.372
21. 201T  0.357
22. NCI-H1437  0.329
23. NCI-H1975  0.326
24. LC-2-ad  0.298
25. NCI-H441  0.274
26. HCC-827  0.262
27. EPLC-272H  0.251
28. HCC-15  0.229
29. NCI-H2023  0.205
30. LCLC-97TM1  0.164
31. NCI-H460  0.0647

Same assay, conditions: first compound 100 µM

In order of rising relative viability:
1. SW 1573  0.0549
2. NCI-H460  0.0655
3. NCI-H2023  0.187
4. LCLC-97TM1  0.195
5. HCC-15  0.234
6. HCC-827  0.266
7. NCI-H441  0.271
8. NCI-H1975  0.292
9. 201T  0.297
10. LC-2-ad  0.298
11. NCI-H1437  0.337
12. NCI-H1734  0.408
13. NCI-H2347  0.43
14. EPLC-272H  0.432
15. EKVX  0.438
16. RERF-LC-KJ  0.468
17. NCI-H1915  0.481
18. NCI-H1755  0.52
19. NCI-H1651  0.579
20. NCI-H520  0.629
21. NCI-H322M  0.637
22. NCI-H2405  0.728
23. NCI-H23  0.812
24. SK-LU-1  0.874
25. NCI-H661  0.907
26. LXF-289  0.941
27. NCI-H650  0.941
28. HCC-78  0.95
29. NCI-H2085  0.963
30. CAL-12T  1.05
31. A-427  1.07
32. NCI-H1355  1.08
33. PC-3 [JPC-3]  1.11

Compound: CC(O)(CS(=O)(=O)c1ccc(F)cc1)C(=O)Nc1ccc(C#N)c(C(F)(F)F)c1 [Bicalutamide] + O=C(CCCCCCC(=O)Nc1ccccc1)NO [Vorinostat] (partner 1 µM)
Test: as above
Details: first compound 0.08 µM
How it was run: as §1

In order of rising relative viability:
1. EPLC-272H  0.437
2. NCI-H650  0.449
3. HCC-78  0.489
4. NCI-H1915  0.536
5. NCI-H2347  0.574
6. NCI-H1651  0.577
7. NCI-H1355  0.679
8. NCI-H2023  0.69
9. NCI-H1755  0.727
10. LCLC-97TM1  0.728
11. NCI-H1975  0.73
12. HCC-15  0.746
13. NCI-H23  0.758
14. NCI-H460  0.763
15. LC-2-ad  0.767
16. NCI-H661  0.768
17. RERF-LC-KJ  0.779
18. PC-3 [JPC-3]  0.809
19. EKVX  0.814
20. LXF-289  0.818
21. NCI-H2085  0.829
22. NCI-H520  0.831
23. NCI-H1437  0.839
24. NCI-H1734  0.85
25. NCI-H322M  0.858
26. SK-LU-1  0.871
27. A-427  0.883
28. HCC-827  0.921
29. NCI-H441  0.924
30. CAL-12T  0.945
31. NCI-H2405  1.09
32. 201T  1.11
33. SW 1573  1.26

Same assay, conditions: first compound 0.253 µM

In order of falling relative viability:
1. NCI-H2405  0.985
2. 201T  0.957
3. A-427  0.9
4. NCI-H322M  0.898
5. PC-3 [JPC-3]  0.887
6. SK-LU-1  0.856
7. NCI-H1437  0.832
8. NCI-H661  0.805
9. HCC-15  0.761
10. NCI-H441  0.755
11. NCI-H1755  0.748
12. NCI-H1975  0.742
13. NCI-H2085  0.741
14. LXF-289  0.734
15. NCI-H520  0.728
16. NCI-H1734  0.701
17. LC-2-ad  0.679
18. EKVX  0.656
19. LCLC-97TM1  0.644
20. HCC-827  0.639
21. NCI-H2023  0.608
22. CAL-12T  0.607
23. RERF-LC-KJ  0.606
24. NCI-H1355  0.596
25. NCI-H2347  0.587
26. SW 1573  0.586
27. NCI-H650  0.518
28. NCI-H1651  0.514
29. NCI-H23  0.498
30. NCI-H1915  0.456
31. NCI-H460  0.439
32. HCC-78  0.436
33. EPLC-272H  0.401

Same assay, conditions: first compound 0.8 µM

In order of falling relative viability:
1. NCI-H2405  1.49
2. HCC-827  1.15
3. PC-3 [JPC-3]  1.14
4. SW 1573  1.12
5. NCI-H1734  1.05
6. 201T  1.05
7. NCI-H322M  0.995
8. LCLC-97TM1  0.972
9. HCC-15  0.954
10. NCI-H460  0.92
11. NCI-H1755  0.916
12. CAL-12T  0.915
13. NCI-H2023  0.893
14. NCI-H520  0.881
15. NCI-H1437  0.875
16. A-427  0.866
17. RERF-LC-KJ  0.864
18. SK-LU-1  0.82
19. NCI-H2085  0.816
20. LXF-289  0.797
21. NCI-H441  0.778
22. NCI-H661  0.771
23. EKVX  0.711
24. NCI-H2347  0.709
25. NCI-H1975  0.703
26. NCI-H23  0.697
27. NCI-H1355  0.691
28. LC-2-ad  0.67
29. NCI-H1651  0.662
30. NCI-H1915  0.584
31. EPLC-272H  0.573
32. NCI-H650  0.513
33. HCC-78  0.462

Same assay, conditions: first compound 2.53 µM

In order of falling relative viability:
1. NCI-H322M  1.11
2. 201T  0.977
3. NCI-H2405  0.975
4. HCC-15  0.899
5. NCI-H1437  0.859
6. A-427  0.842
7. HCC-827  0.815
8. PC-3 [JPC-3]  0.808
9. NCI-H661  0.806
10. NCI-H460  0.779
11. NCI-H441  0.751
12. EKVX  0.713
13. SK-LU-1  0.699
14. LXF-289  0.698
15. NCI-H2085  0.687
16. NCI-H1734  0.673
17. SW 1573  0.652
18. NCI-H1755  0.635
19. CAL-12T  0.623
20. NCI-H1355  0.609
21. NCI-H520  0.596
22. NCI-H2347  0.581
23. NCI-H1651  0.567
24. RERF-LC-KJ  0.564
25. NCI-H1975  0.557
26. LC-2-ad  0.556
27. LCLC-97TM1  0.54
28. NCI-H1915  0.522
29. EPLC-272H  0.479
30. NCI-H23  0.465
31. HCC-78  0.447
32. NCI-H650  0.367
33. NCI-H2023  0.349
